Where a SMILES comes first, the peptide text is derived from it. [ ]: non-standard residue; d: D form. NMeF = CN[C@@H](Cc1ccccc1)C(=O)O; dNMeF = CN[C@H](Cc1ccccc1)C(=O)O; NMeL = CN[C@@H](CC(C)C)C(=O)O; dNMeL = CN[C@H](CC(C)C)C(=O)O; NMeV = CN[C@H](C(=O)O)C(C)C; NMeA = CN[C@@H](C)C(=O)O; dNMeA = CN[C@H](C)C(=O)O; Sar = CNCC(=O)O
conditions: PAMPA

Row | Compound | PAMPA_Papp_Avg (apparent permeability)
1 | CC(C)C[C@@H]1C(=O)N(C)[C@H](C)C(=O)N(C)[C@@H](C(C)C)C(=O)N2CCC[C@@H]2C(=O)N[C@H](C)C(=O)N[C@@H](Cc2ccccc2)C(=O)N2CCC[C@@H]2C(=O)N2CCC[C@H]2C(=O)N[C@H](C(C)C)C(=O)N[C@@H](C(C)C)C(=O)N1C [Design D10.29, FpPvV*l*a*Vpa] (cyclo([dV]V[dNMeL][dNMeA][NMeV][dP][dA]F[dP]P)) | 4.41 nm/s
2 | CC[C@@H](C)[C@H]1NC(=O)[C@H](Cc2ccccc2)NC(=O)[C@@H](CC(C)C)N(C)C(=O)[C@@H]2CCCN2C(=O)[C@@H](C(C)C)NC(=O)[C@@H](C)N(C)C(=O)[C@H]2CCCN2C(=O)[C@@H](CC(C)C)NC(=O)[C@H](CC(C)C)NC(=O)[C@@H]2CCCN2C1=O [Design D10.30, P*lFiPLlp*av] (cyclo(F[dI]PL[dL][dP][dNMeA][dV]P[dNMeL])) | 47.8 nm/s
3 | CC[C@H](C)[C@@H]1NC(=O)[C@@H](CC(C)C)NC(=O)[C@@H](C)N(C)C(=O)[C@H](Cc2ccccc2)NC(=O)[C@@H](CC(C)C)NC(=O)[C@@H](C)N(C)C(=O)[C@@H]2CCCN2C(=O)[C@H](C(C)C)NC(=O)[C@H]2CCCN2C(=O)[C@@H]2CCCN2C1=O [Design D10.31, F*alIPpVP*al] (cyclo(F[dNMeA][dL]IP[dP]VP[dNMeA][dL])) | 19 nm/s
4 | CC[C@@H](C)[C@H]1NC(=O)[C@@H](Cc2ccccc2)NC(=O)[C@@H](CC(C)C)NC(=O)[C@@H]2CCCN2C(=O)[C@H]2CCCN2C(=O)[C@H](CC(C)C)NC(=O)[C@H](CC(C)C)NC(=O)[C@@H](CC(C)C)N(C)C(=O)[C@H](C)N(C)C(=O)[C@H]2CCCN2C1=O [Design D10.34, fip*A*lLLpPl] (cyclo([dL][dF][dI][dP][NMeA][dNMeL]LL[dP]P)) | 45.1 nm/s
5 | CC(C)C[C@@H]1NC(=O)[C@H](C(C)C)NC(=O)[C@@H](CC(C)C)N(C)C(=O)[C@H](C)NC(=O)[C@@H](CC(C)C)N(C)C(=O)[C@@H]2CCCN2C(=O)[C@H]2CCCN2C(=O)[C@H](C)N(C)C(=O)[C@H]2CCCN2C(=O)[C@@H](CC(C)C)NC1=O [Design D10.35, Llp*ApP*LA*lV] (cyclo([dNMeL]A[dNMeL]VL[dL][dP][NMeA][dP]P)) | 2.79 nm/s
6 | CC[C@@H](C)[C@H]1NC(=O)[C@@H](Cc2ccccc2)NC(=O)[C@H](CC(C)C)NC(=O)[C@@H](C)N(C)C(=O)[C@@H](CC(C)C)NC(=O)[C@H](CC(C)C)NC(=O)[C@H]2CCCN2C(=O)[C@@H]2CCCN2C(=O)[C@@H](C)NC(=O)[C@H]2CCCN2C1=O [Design D10.37, l*aLfipaPpL] (cyclo(L[dF][dI][dP][dA]P[dP]L[dL][dNMeA])) | 6.54 nm/s
7 | CC[C@@H](C)[C@H]1NC(=O)[C@H]2CCCN2C(=O)[C@@H]2CCCN2C(=O)[C@@H](CC(C)C)NC(=O)[C@H](C)NC(=O)[C@@H](CC(C)C)N(C)C(=O)[C@@H](C)N(C)C(=O)[C@@H]2CCCN2C(=O)[C@@H]([C@H](C)CC)NC(=O)[C@@H](CC(C)C)N(C)C1=O [Design D10.39, P*a*lAlPpi*li] (cyclo(A[dL]P[dP][dI][dNMeL][dI]P[dNMeA][dNMeL])) | 14.8 nm/s
8 | CC[C@H](C)[C@@H]1NC(=O)[C@@H](C(C)C)NC(=O)[C@@H](CC(C)C)N(C)C(=O)[C@H]2CCCN2C(=O)[C@@H](CC(C)C)NC(=O)[C@@H](CC(C)C)N(C)C(=O)[C@H](CC(C)C)NC(=O)[C@H]2CCCN2C(=O)[C@H](C)N(C)C(=O)[C@H]2CCCN2C1=O [Design D10.41, p*lvIp*ApL*ll] (cyclo(I[dP][NMeA][dP]L[dNMeL][dL][dP][dNMeL][dV])) | 56.9 nm/s
9 | CC(C)C[C@H]1NC(=O)[C@@H](C(C)C)NC(=O)[C@H](CC(C)C)N(C)C(=O)[C@@H](Cc2ccccc2)NC(=O)[C@H](CC(C)C)N(C)C(=O)[C@H]2CCCN2C(=O)[C@@H]2CCCN2C(=O)[C@H]2CCCN2C(=O)[C@@H](C(C)C)NC(=O)[C@H]2CCCN2C1=O [Design D10.42, vlpvpPp*Lf*L] (cyclo([dP][NMeL][dF][NMeL][dV][dL][dP][dV][dP]P)) | 7.1 nm/s
10 | CC(C)C[C@@H]1C(=O)N[C@@H](C)C(=O)N[C@H](CC(C)C)C(=O)N2CCC[C@H]2C(=O)N[C@H](C)C(=O)N2CCC[C@@H]2C(=O)N2CCC[C@H]2C(=O)N[C@H](C(C)C)C(=O)N[C@H](CC(C)C)C(=O)N(C)[C@H](CC(C)C)C(=O)N1C [Design D10.43, apPvl*l*LAlP] (cyclo([dV][dL][dNMeL][dNMeL]A[dL]P[dA][dP]P)) | 1.61 nm/s
11 | CC[C@H](C)[C@@H]1NC(=O)[C@@H](Cc2ccccc2)NC(=O)[C@@H](C)NC(=O)[C@@H](C(C)C)NC(=O)[C@H](CCSC)NC(=O)[C@@H]2CCCN2C(=O)[C@H]2CCCN2C(=O)[C@@H]2CCCN2C(=O)[C@@H](C)N(C)C(=O)[C@@H](CC(C)C)N(C)C1=O [Design D10.45, vafI*l*aPpPM] (cyclo(M[dV][dA][dF]I[dNMeL][dNMeA]P[dP]P)) | 4.87 nm/s
12 | CC(C)C[C@@H]1NC(=O)[C@H](C)NC(=O)[C@@H]2CCCN2C(=O)[C@H]2CCCN2C(=O)[C@H](Cc2ccccc2)NC(=O)[C@H]2CCCN2C(=O)[C@@H](Cc2ccccc2)N(C)C(=O)[C@@H]2CCCN2C(=O)[C@@H](C)NC(=O)[C@H](CC(C)C)NC1=O [Design D10.49, aP*fpFpPALL] (cyclo(ALL[dA]P[dNMeF][dP]F[dP]P)) | 1.7 nm/s
13 | CC[C@@H](C)[C@H]1NC(=O)[C@H](Cc2ccccc2)N(C)C(=O)[C@@H](CC(C)C)N(C)C(=O)[C@H](C(C)C)NC(=O)[C@H](C)NC(=O)[C@@H]2CCCN2C(=O)[C@H](CC(C)C)N(C)C(=O)[C@@H](Cc2ccccc2)N(C)C(=O)[C@H](C)N(C)C(=O)[C@H](C)N(C)C1=O [Design D10.56, *f*LPAV*l*Fi*A*A] (cyclo(AV[dNMeL][NMeF][dI][NMeA][NMeA][dNMeF][NMeL]P)) | 90.2 nm/s
14 | CC(C)C[C@@H]1NC(=O)[C@@H](CC(C)C)N(C)C(=O)[C@@H]2CCCN2C(=O)[C@H](CC(C)C)N(C)C(=O)[C@@H](C)NC(=O)[C@@H](CC(C)C)N(C)C(=O)[C@@H]2CCCN2C(=O)CN(C)C(=O)[C@H](CC(C)C)N(C)C(=O)[C@H](Cc2ccccc2)NC1=O [Design D10.57, *L*GP*la*LP*lLF] (cyclo(F[NMeL][Sar]P[dNMeL][dA][NMeL]P[dNMeL]L)) | 30.5 nm/s
15 | C[C@H]1NC(=O)[C@@H](Cc2ccccc2)NC(=O)[C@H](Cc2ccccc2)N(C)C(=O)[C@H](Cc2ccccc2)N(C)C(=O)[C@@H](Cc2ccccc2)NC(=O)[C@H]2CCCN2C(=O)CNC(=O)[C@@H](C)NC(=O)[C@@H]2CCCN2C(=O)[C@@H](Cc2ccccc2)NC1=O [Design D10.62, aGpf*F*FfafP] (cyclo(G[dP][dF][NMeF][NMeF][dF][dA][dF]P[dA])) | 42.3 nm/s
16 | CC[C@@H](C)[C@H]1NC(=O)[C@@H]2CCCN2C(=O)[C@@H]([C@H](C)CC)NC(=O)[C@@H](C)N(C)C(=O)[C@H](CC(C)C)NC(=O)[C@@H](Cc2ccccc2)NC(=O)[C@H](CC(C)C)N(C)C(=O)[C@H]2CCCN2C(=O)[C@@H](CC(C)C)NC(=O)[C@H](CC(C)C)NC(=O)[C@H]2CCCN2C1=O [Design D11.1, ipLlp*LfL*aiP] (cyclo(L[dL][dP][NMeL][dF]L[dNMeA][dI]P[dI][dP])) | 34.8 nm/s

Reference: patent publication US20260274895A1, “DE NOVO DESIGNED MEMBRANE-TRAVERSING AND ORALLY BIOAVAILABLE MACROCYCLES” (UNIVERSITY OF WASHINGTON, priority 2022, published 2026)
